The conditions of data set [1]: literature; cited from earlier work.
A further data set deals with S. pyogenenes. The data set can be described thus: Sensitivity of clinically isolated strains. The class given is cell-based. The following applies: clinical isolates.
A further data set concerns P. rettgeri. As to the kind of experiment: Sensitivity of clinically isolated strains. In kind it is cell-based. The conditions noted are these: Providencia rettgeri; clinical isolates. The procedure:
(§1) With regard to the novel compound, SUN 5555, as obtained according to this invention, sensitivities were determined toward the S. aureus strain 87, E. coli strain 88, Klebsiella sp. strain 63, P. mirabillis strain 30, P. vulgaris strain 41, M. morganii strain 29, P. rettgeri strain 17, S. marcescens strain 88, A. calcoaceticus strain 57 and H. influenza strain 25. The determinations were carried out in accordance with the minimal growth inhibitory concentration measuring method as specified by The Chemotherapeutic Society of Japan, with the results being shown […], respectively.

The subject of another data set is E. coli. As to the kind of experiment: Sensitivity of clinically isolated strains. The conditions noted are these: Escherichia coli; clinical isolates. The class given is cell-based. How it is done:
as §1

The test system of a further data set is M. morganii. The data set can be described thus: Sensitivity of clinically isolated strains. In kind it is cell-based. The following applies: Morganella morganii; clinical isolates. How it is done: as §1
For a further data set, the system named is P. vulgaris. As to the kind of experiment: Sensitivity of clinically isolated strains. The class given is cell-based. The following applies: Proteus vulgaris. The procedure:
as §1

The next data set deals with P. mirabillis. As to the kind of experiment: Sensitivity of clinically isolated strains. In kind it is cell-based. The conditions noted are these: clinical isolates. The procedure:
as §1

The next data set deals with S. marcescens. The data set can be described thus: Sensitivity of clinically isolated strains. In kind it is cell-based. The following applies: Serratia marcescens; clinical isolates. The procedure: as §1
Data set [2] has as its system Methycillin-resistant S. aureus. As to the kind of experiment: Sensitivity of clinically isolated strains. In kind it is cell-based. The following applies: Staphylococcus aureus. The procedure:
as §1

For the next data set, the system named is A. calcoaceticus. As to the kind of experiment: Sensitivity of clinically isolated strains. In kind it is cell-based. The following applies: Acinetobacter calcoaceticus; clinical isolates. The procedure:
as §1

The next data set relates to S. aureus. The data set can be described thus: Sensitivity of clinically isolated strains. In kind it is cell-based. The following applies: Staphylococcus aureus; clinical isolates. How it is done:
as §1

The test system of the next data set is Klebsiella sp. The data set can be described thus: Sensitivity of clinically isolated strains. The class given is cell-based. The following applies: clinical isolates. How it is done:
as §1

A further data set relates to H. influenza. The data set can be described thus: Sensitivity of clinically isolated strains. The class given is cell-based. The conditions noted are these: clinical isolates. How it is done:
as §1

The next data set relates to S. aureus Smith. As to the kind of experiment: Therapeutic effect against experimental infection in mice (ED50). The following applies: oral; survival after 6 days, Probit method; 8640 min. The class given is in vivo, S. aureus; ICR strain male mice. How it is done:
(§2) Out of the novel compound obtained according to this invention, SUN 4435 was selected to carry out a treatment experiment with infected animals. As an animal, there were employed ICR strain male mice (5-weeks aged, with an average body weight of 29.1 g), which were infected intraperitoneally with a test microorganism, S. aureus Smith or E. coli KC-14, and 24 hours later, treated by subcutaneous or oral application of SUN 4435 or SUN 5555. ED50 values were determined from the survival rates found after 6 days in accordance with the Probit method.

The next data set has as its system E. coli KC-14. Described as above. The class given is in vivo, E. coli; ICR strain male mice. The conditions noted are these: oral; survival after 6 days, Probit method; 8640 min. How it is done:
as §2

Another data set is described as follows: Acute toxicity test. The class given is in vivo. The conditions noted are these: intravenous. How it is done: Out of the novel compounds obtained according to this invention, SUN 4435 and SUN 5555 were selected to carry out an acute toxicity test. As an animal, there were employed ICR strain mice (4-weeks aged), which were treated by oral and intravenous application of the compounds.

Data on three molecules can be found in patent US4997829A, “Penem compounds, and use thereof” (Suntory Limited, priority 1985, dated 1991).

Structures are written as SMILES.

A word on the ED50: it is the dose that gives a 50% effect, or the effect in half of the subjects.

As to `C[C@@H](O)[C@@H]1C(=O)N2C(C(=O)O)=C(SCCN)S[C@H]12` [1-thiathienamycin], in data set [1], the activity result is recorded as “strong activity”.
Consider `C[C@@H](O)[C@H]1C(=O)N2C(C(=O)O)=C([C@H]3CCCO3)S[C@H]12` [SUN 5555, Sodium (1'R, 2"R, 5R, 6S)-6-(1'-hydroxyethyl)-2-(2"-tetrahydofuranyl)penem-3-carboxylate], for which the MIC50 was less than 0.025 µg/mL in the data set with S. pyogenenes; 1.56 µg/mL against P. rettgeri; 0.78 µg/mL with E. coli; 1.56 µg/mL with M. morganii; 3.13 µg/mL in the data set on P. vulgaris; 3.13 µg/mL in the data set with P. mirabillis. In addition, the MIC50 was 1.56 µg/mL against S. marcescens; 1.56 µg/mL in data set [2]; 6.25 µg/mL in the data set with A. calcoaceticus; 0.1 µg/mL with S. aureus; 0.78 µg/mL against Klebsiella sp.; 0.39 µg/mL against H. influenza. Also, the MIC90 against S. pyogenenes is less than 0.025 µg/mL; in the data set with P. rettgeri, 6.25 µg/mL; with E. coli it was 1.56 µg/mL; in the data set on M. morganii it was 6.25 µg/mL; against P. vulgaris, 6.25 µg/mL; in the data set on P. mirabillis it was 6.25 µg/mL. The MIC90 in the data set with S. marcescens was 6.25 µg/mL; in data set [2], greater than 100 µg/mL; in the data set with A. calcoaceticus it was 25 µg/mL; in the data set on S. aureus, 0.2 µg/mL; in the data set with Klebsiella sp., 1.56 µg/mL; with H. influenza, 0.78 µg/mL. The values for the ED50 in the data set on S. aureus Smith and with E. coli KC-14 were 5.6 mg/kg and 13.9 mg/kg, respectively. The survival result in “Acute toxicity test” (3 g/kg, two male and female mice) is “survived”; in the data set “Acute toxicity test” (5 g/kg, five male mice) it was “one out of five male mice”.
Turning to `CCSC1=C(C(=O)O)N2C(=O)[C@H]([C@@H](C)O)[C@H]2S1` [Sch 29482], in [1], the activity entry is on record as “strong activity”.
